In patent US20260365692A1, “COMPOSITIONS COMPRISING PROTEINS DISSOLVED IN FLUORINATED SOLVENTS, AND METHODS OF MAKING AND USING THE SAME” (priority 2022, published 2026):

Columns and labels:
[1] = tested on: β-Galactosidase (β-Gal); details: into PFH, 1000:1 molar ratio with protein
Description: FIGS. 8A-8G depict fluorochemical-mediated dispersion of test proteins hemoglobin (Hb, FIG. 8A), green fluorescent protein (GFP, FIG. 8B), bovine serum albumin (BSA, FIG. 8C), β-Galactosidase (β-Gal, FIG. 8D), rabbit serum immunoglobulin G (IgG, FIG. 8E), bovine apo-transferrin (TFN, FIG. 8F), and urease (URE, FIG. 8G) into perfluorohexane. […] The compound ‘0’ indicates a control sample absent of an additive. The crystal structure of each protein candidate tested is shown in the inset of each of FIGS. 8A-8G. Only the rabbit IgG Fc fragment is shown.
To investigate PFAS-protein binding avidity, an assay was developed to measure the concentration of protein dispersed into perfluorohexane (PFH) in the presence of each fluorochemical compound (1000:1 molar ratio with protein). Protein dispersion into PFH served as a quantitative measure of PFAS-protein avidity, where the amount of dispersed protein was normalized to its initial concentration to evaluate binding interactions.

[2] = tested on: seven model proteins (Hb, GFP, BSA, β-Gal, IgG, TFN, URE); experiment: Fluorochemical-mediated dispersion of test proteins into perfluorohexane; assay type: physicochemical; details: into PFH, 1000:1 molar ratio with protein
Description: Only the rabbit IgG Fc fragment is shown.
For PFAS amphiphiles, the combination of polar head group and fluorophilic tail additionally leads to their preferential assembly at water-fluorous interfaces. Based on these unique properties, it was speculated that PFAS compounds may noncovalently associate with proteins to mediate their phase separation into fluorous media. To test this, a screening assay was developed to qualitatively investigate the binding affinity of a library of perfluorinated chemicals with seven model proteins, which include human hemoglobin (Hb), green fluorescent protein (GFP), bovine serum albumin (BSA), (β-Galactosidase (β-Gal), rabbit serum immunoglobulin (IgG), bovine apo-transferrin (TFN), and urease (URE). This group of model proteins captures an array of physicochemical properties ranging in molecular weight, solvent accessible surface area (SASA), isoelectric point (pI), and hydrodynamic radii. A corresponding perfluorinated small molecule test set was selected to contain a plurality of functional groups, linear perfluorocarbon chain lengths, and cyclic or aromatic geometries (FIGS. 1-7). Selection of these compounds was based on their potential to form noncovalent bonds (i.e., hydrogen or ionic) with the solvent exposed protein surfaces. […] These three linear PFAS chemicals are currently regulated by the US Environmental Protection Agency based on their reproductive, immune, and hepatic toxicity (References: 44-46). In sum, the structural and biochemical diversity represented in the protein and fluorochemical libraries was rationally selected to allow structure-function-performance relationships to be ascertained from binding studies.

[3] = Temperature-dependent circular dichroism of proteins in PFOc or PBS (Example 4); assay type: physicochemical
Method: FIGS. 39A-39B depict temperature-dependent CD spectra of the indicated test protein solubilized in PFOc using the PD-7 dispersant, or PBS as a control.
FIG. 40 depicts the change in minimum CD ellipticity over the 40 °C-85 °C temperature interval for the indicated protein dissolved in either PBS or PFOc.
To determine structural integrity of proteins in aqueous and fluorinated environments at elevated temperatures, circular dichroism (CD) was used to probe secondary structure. Proteins were either diluted in PBS (aqueous) or dispersed in PFOc at the same designated concentrations according to protocol described above. For aqueous samples, dissolved proteins were heated between 40 °C to 90 °C, and their corresponding CD spectra at each temperature was measured. For PFOc samples, each of the PFOc dispersed proteins were subjected to heat treatment at 40, 55, 70, and 85 °C for 15 minutes. After that, dispersed proteins were eluted into PBS before having their CD spectra taken. Data is shown by representative ellipticity at each temperature depicted by distinct colors.

[4] = tested on: E. coli; experiment: Bacterial contamination of BSA samples with E. coli; details: 37 °C overnight
Method: FIG. 24A: Diagram of contamination experiment. FIG. 24B: Samples in PBS (top) and PFOc (bottom) after contamination with E. coli.
To model bacterial contamination of samples a hypodermic needle was streaked across a lawn of plated E. coli (FIG. 24A). The contaminated needle was then dipped into PBS or PFOc (containing PFNA) samples with dispersed BSA protein to contaminate, and samples incubated at 37 °C overnight to allow for bacterial growth. An aliquot of the solution was then streaked onto LB-agar plates and incubated at 37 C overnight to allow for bacterial colony formation.

[5] = tested on: E. coli, P. aeruginosa, K. pneumoniae, Methicillin-resistant S. aureus (MRSA), C. albicans; experiment: Contamination of BSA formulations by bacterial and fungal pathogens
Description: FIG. 53 depicts representative photographs of agar plates streaked with BSA formulations in PBS (top panel) or PFOc (lower panel) contaminated with the indicated pathogen. MRSA=methicillin resistant Staphylococcus aureus.
Evaluating PFOc Protein Formulation Resilience Against Contaminants Aqueous protein formulations can be compromised by contaminating pathogens, or the biologic inactivated by exposure to environmental disinfectants and acids. In the context of bacterial and fungal contamination, it was hypothesized that removal of the water solvent required for microorganismal survival should make the PFOc protein formulations intrinsically sterile. A hypodermic needle was streaked across a lawn of the human bacterial pathogens E. coli, P. aeruginosa, K. pneumoniae or Methicillin-resistant S. aureus (MRSA), as well as the human fungal pathogen C. albicans prepared on agar. The contaminated needle was then submerged into BSA protein formulations prepared in either PBS or PFOc solvents. Contaminated liquid formulations were incubated at 37 °C overnight and replated onto agar plates to assess growth.

[6] = tested on: HepG2 cells; experiment: HepG2 MTT viability assay (Example 2); assay type: cell-based, human; details: HepG2, 37 °C overnight
Method: FIG. 28 depicts a viability assay for HepG2 cells treated with two first generation compounds and two second generation compounds.
Next, viability assays were performed by seeding HepG2 (liver cancer cell line) onto 96 well plates and allowing the cells to adhere overnight. DMEM cell culture media containing various concentrations of each FTag compound were then added, and the plates were incubated at 37 °C overnight. The supernatant was then removed and MTT viability dyes were added to each well and allowed to convert for 2 hours. Dye absorbance for each condition was then compared to positive (20% DMSO) and negative (blank media) controls to calculate % viability (FIG. 28).

[7] = Thermal stability of proteins in PFNA/PFOc (bioactivity after heating); assay type: physicochemical; details: PFNA/PFOc mixture compared to aqueous solution, 30 min heating
Method: FIGS. 16A-16C depict that the thermal stability of β-gal, GFP, and Trypsin is enhanced when the proteins are dissolved in a PFNA/PFOc mixture, compared to aqueous solutions of the proteins.
PFNA enhanced thermal stability in PFOc Differential scanning calorimetry (DSC) measurements were performed on 5 test proteins dissolved in either PBS (Aq.) or Perfluorooctane (PFOc). PFNA dispersant was added only for the PFOc conditions. DSC was performed at 2 °C/min ramp from 40 °C-100 °C. Melting temperature (Tm) was determined based on positive inflection of heat capacity curve, indicating protein unfolding (FIG. 15). Change in melting temperature (ATm (°C)) represented the difference in Tm between aqueous (Aq.) and PFOc data. Tm for GFP in PFOc could not be achieved at the maximum temperature of 100 °C for the DSC experiments. Each protein was dissolved in PBS (Aq.) or PFNA/PFOc mixture. Dissolved proteins were heated to 75 °C (β-gal), 90 °C (GFP) or 80 °C (Trypsin); treatment temperatures were determined based on aqueous melting temperatures for each protein. Positive controls were maintained at room temperature (25 °C). […] Bioactivity was evaluated then via fluorescence measurements for GFP, or using colorimetric substrate conversion assays (ONPG for β-gal, BAEE for Trypsin). […]

[8] = Protein activity after elevated temperature exposure (Example 4); assay type: physicochemical; details: 90 °C for 30 minutes
Method: A group of enzyme proteins, β-Gal and Trypsin was chosen for this study. β-Gal and Trypsin were diluted in PBS or dispersed in PFOc at 1 μM and 10 μM, respectively. Next, a subset of samples was subjected to elevated temperature condition (90 °C) well beyond their native denaturation temperature for 30 minutes. After that, samples were allowed to cool down to room temperature before retrieval. For PFOc samples, proteins were extracted into PBS before performing the ensuing assays. To determine the enzymatic activity, an equal volume of protein samples was added to their substrates dissolved in PBS (4 mg/mL ONPG for β-Gal or 1 mg/mL BAEE for Trypsin). After incubation, ONPG and BAEE substrate conversions were measured by taking absorbance using a microplate reader at 420 nm or 400 nm, respectively. In case of intrinsic fluorescence, GFP was similarly prepared, and heat treated. After GFP samples were retrieved, fluorescent intensity was taken at λex=490 nm, λem=520 nm. The change in protein activity was presented by normalizing to spectrometric readings of each protein dissolved in PBS without being subjected to heat (room temperature). […] This supports the assertion that the fluorous coating and solvent environments, together, serve to constrain the conformational flexibility of the dispersed protein and, as a result, increase its melting temperature.

[9] = dispersed in PFOc using PD-7, heated up to 85 °C

For `O=C(O)C(F)(F)C(F)(F)C(F)(F)C(F)(F)C(F)(F)C(F)(F)C(F)(F)C(F)(F)C(F)(F)C(F)(F)C(F)(F)C(F)(F)C(F)(F)F` [Compound 11, perfluorotetradecanoic acid], which “dispersion efficiency of β-Gal (in words)” value [1] is on record?
Its value is “sharp drop off in dispersion efficiency”.

With `O=S(=O)(O)C(F)(F)C(F)(F)C(F)(F)C(F)(F)C(F)(F)C(F)(F)C(F)(F)C(F)(F)F` [Compound 17, perfluorooctanesulfonic acid] as the molecule, how does the “capacity to disperse proteins into PFH / association with proteins (in words)” value [2] read?
The value was “capacity to disperse many of the protein candidates into PFH”.

For `O=C(O)C(F)(F)C(F)(F)C(F)(F)C(F)(F)C(F)(F)C(F)(F)C(F)(F)C(F)(F)C(F)(F)F` [Compound 8, perfluorodecanoic acid], which “capacity to disperse proteins into PFH / association with proteins (in words)” value [2] is on record?
Its value is “significantly compromised its association with most proteins”.

Which “capacity to disperse proteins into PFH / association with proteins (in words)” value [2] does the source give for `NCC(F)(F)C(F)(F)C(F)(F)C(F)(F)C(F)(F)C(F)(F)C(F)(F)C(F)(F)F` [Compound 20, 1H,1H-perfluorononylamine] here?
Its value is “capacity to disperse many of the protein candidates into PFH”.

Which “capacity to disperse proteins into PFH / association with proteins (in words)” value [2] does the source give for `O=C(O)C(F)(F)C(F)(F)C(F)(F)C(F)(F)C(F)(F)C(F)(F)C(F)(F)F` [Compound 6, perfluorooctanoic acid] here?
The value was “significantly compromised its association with most proteins”.

With BSA: bovine serum albumin (BSA) as the molecule, how does the “change in secondary structure” value [3, 9] read?
Its value is “minimal changes in secondary structure”.

And the “E. coli colony growth after contamination” value ([4]; BSA in PBS)?
The value was “Visible E. coli colony growth”.

And the sterility after contamination ([4]; BSA in PFOc (containing PFNA))?
The sterility after contamination was “remained sterile”.

And the contamination ([5]; BSA in PBS)?
Its contamination is “readily contaminated by all five pathogens”.

And the sterility after contamination ([5]; BSA in PFOc)?
Its sterility after contamination is “remained sterile”.

For “2,2-(1,1,1,2,2,3,3,4,4,5,5,6,6-tridecafluorooctane)-2-cyanoacetic acid [Compound 21]”, which IC50 [6] is on record?
The IC50 was 610 µM.

For `O=C(O)C1(F)C(F)(F)C(F)(F)C(F)(F)C(F)(F)C1(F)F` [Compound 13, perfluorocyclohexanecarboxylic acid], which “capacity to disperse proteins into PFH / association with proteins (in words)” value [2] is on record?
The value was “capacity to disperse many of the protein candidates into PFH”.

With `O=C(O)C(F)(F)C(F)(F)C(F)(F)C(F)(F)C(F)(F)C(F)(F)C(F)(F)C(F)(F)C(F)(F)C(F)(F)C(F)(F)F` [Compound 10, perfluorododecanoic acid] as the molecule, how does the “dispersion efficiency of β-Gal (in words)” value [1] read?
The value was “stepwise increase in dispersion efficiency”.

B1: Trypsin: bovine trypsin (protein, UniProt P00760 24-246, looked up)
Serine protease 1: IVGGYTCGANTVPYQVSLNSGYHFCGGSLINSQWVVSAAHCYKSGIQVRLGEDNINVVEGNEQFISASKSIVHPSYNSNTLNNDIMLIKLKSAASLNSRVASISLPTSCASAGTQCLISGWGNTKSSGTSYPDVLKCLKAPILSDSSCKSAYPGQITSNMFCAGYLEGGKDSCQGDSGGPVVCSGKLQGIVSWGSGCAQKNKPGVYTKVCNYVSWIKQTIASN
Which results are given for B1?
change in secondary structure [3, 9]: minimal changes in secondary structure; change in secondary structure ([3]; saline (PBS) control, 40-85 °C): minimal change in structure; thermal stability [7]: enhanced; change in activity after heating ([8]; PFOc dispersed): no statistically significant change in activity; loss of bioactivity after heating ([8]; saline): > 90%
